Assay results published in patent publication US8604217B2, “Compound, a process for its preparation, a pharmaceutical composition, use of a compound, a method for modulating or regulating serine/threonine kinases and a serine/threonine kinases modulating agent” (Selvita S.A., priority 2009, dated 2013).

Legend:
Assay in all cases: KinaseProfiler kinase panel
Type in all cases: biochemical
GSK3β(h) = GSK3β(h) (Homo sapiens (Human), UniProt P49841)
SAPK2b(h) = SAPK2b(h) (Homo sapiens (Human), UniProt Q15759)
JAK3(h) = JAK3(h) (Homo sapiens (Human), UniProt P52333)
TSSK2(h) = TSSK2(h) (Homo sapiens (Human), UniProt Q96PF2)
Itk(h) = Itk(h) (Homo sapiens (Human), UniProt Q08881)
Lck(h) = Lck(h) (Homo sapiens (Human), UniProt P06239)
Abl(h) = Abl(h) (Homo sapiens (Human), UniProt P00519)
PDGFRα(D842V)(h) = PDGFRα(D842V)(h) (Homo sapiens (Human), UniProt P16234, D842V)
STK33(h) = STK33(h) (Homo sapiens (Human), UniProt Q9BYT3)
MEK1(h) = MEK1(h) (Homo sapiens (Human), UniProt Q02750)
SRPK2(h) = SRPK2(h) (Homo sapiens (Human), UniProt P78362)
ALK(h) = ALK(h) (Homo sapiens (Human), UniProt Q9UM73)
EGFR(L858R)(h) = EGFR(L858R)(h) (Homo sapiens (Human), UniProt P00533, L858R)
Flt3(D835Y)(h) = Flt3(D835Y)(h) (Homo sapiens (Human), UniProt P36888, D835Y)
NEK11(h) = NEK11(h) (Homo sapiens (Human), UniProt Q8NG66)
PKCγ(h) = PKCγ(h) (Homo sapiens (Human), UniProt P05129)
CDK6/cyclinD3(h) = CDK6/cyclinD3(h) (Homo sapiens (Human), UniProt Q00534)
Rsk2(h) = Rsk2(h) (Homo sapiens (Human), UniProt P51812)
TSSK1(h) = TSSK1(h) (Homo sapiens (Human), UniProt Q9BXA7)
RIPK2(h) = RIPK2(h) (Homo sapiens (Human), UniProt O43353)
PDGFRα(V561D)(h) = PDGFRα(V561D)(h) (Homo sapiens (Human), UniProt P16234, V561D)
MSK2(h) = MSK2(h) (Homo sapiens (Human), UniProt O75676)
Sequence of MSK2(h) (O75676 whole entry): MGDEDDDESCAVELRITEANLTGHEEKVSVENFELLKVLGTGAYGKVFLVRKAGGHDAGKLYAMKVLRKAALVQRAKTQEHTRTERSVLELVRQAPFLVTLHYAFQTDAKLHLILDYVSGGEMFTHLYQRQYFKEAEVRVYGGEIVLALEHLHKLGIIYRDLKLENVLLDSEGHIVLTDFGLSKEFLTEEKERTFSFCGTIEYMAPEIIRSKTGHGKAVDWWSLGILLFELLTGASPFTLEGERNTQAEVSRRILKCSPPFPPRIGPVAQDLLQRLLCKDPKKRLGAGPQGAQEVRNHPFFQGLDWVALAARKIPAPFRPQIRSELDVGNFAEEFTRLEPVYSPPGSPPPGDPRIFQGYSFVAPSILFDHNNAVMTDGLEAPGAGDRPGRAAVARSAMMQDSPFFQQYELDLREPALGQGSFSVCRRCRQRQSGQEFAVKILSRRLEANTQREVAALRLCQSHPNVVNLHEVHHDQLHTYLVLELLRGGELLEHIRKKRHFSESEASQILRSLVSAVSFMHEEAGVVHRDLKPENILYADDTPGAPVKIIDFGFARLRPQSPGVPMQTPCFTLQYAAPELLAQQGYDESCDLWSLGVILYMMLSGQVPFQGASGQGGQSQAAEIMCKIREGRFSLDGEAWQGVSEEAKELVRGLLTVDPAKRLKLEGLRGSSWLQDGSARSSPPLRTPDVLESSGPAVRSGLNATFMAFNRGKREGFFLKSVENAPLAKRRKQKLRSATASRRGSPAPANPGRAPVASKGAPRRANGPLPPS

PKBα(h) = PKBα(h) (Homo sapiens (Human), UniProt P31749)
LKB1(h) = LKB1(h) (Homo sapiens (Human), UniProt Q15831)
Abl(m) = Abl(m) (Mus musculus (Mouse), UniProt P00520)
MLK1(h) = MLK1(h) (Homo sapiens (Human), UniProt P80192)
Rsk3(h) = Rsk3(h) (Homo sapiens (Human), UniProt Q15349)
Met(D1246N)(h) = Met(D1246N)(h) (Homo sapiens (Human), UniProt P08581, D1246N)
MSK1(h) = MSK1(h) (Homo sapiens (Human), UniProt O75582)
Arg(m) = Arg(m) (Mus musculus (Mouse), UniProt Q4JIM5)
Sequence of Arg(m) (Q4JIM5 whole entry): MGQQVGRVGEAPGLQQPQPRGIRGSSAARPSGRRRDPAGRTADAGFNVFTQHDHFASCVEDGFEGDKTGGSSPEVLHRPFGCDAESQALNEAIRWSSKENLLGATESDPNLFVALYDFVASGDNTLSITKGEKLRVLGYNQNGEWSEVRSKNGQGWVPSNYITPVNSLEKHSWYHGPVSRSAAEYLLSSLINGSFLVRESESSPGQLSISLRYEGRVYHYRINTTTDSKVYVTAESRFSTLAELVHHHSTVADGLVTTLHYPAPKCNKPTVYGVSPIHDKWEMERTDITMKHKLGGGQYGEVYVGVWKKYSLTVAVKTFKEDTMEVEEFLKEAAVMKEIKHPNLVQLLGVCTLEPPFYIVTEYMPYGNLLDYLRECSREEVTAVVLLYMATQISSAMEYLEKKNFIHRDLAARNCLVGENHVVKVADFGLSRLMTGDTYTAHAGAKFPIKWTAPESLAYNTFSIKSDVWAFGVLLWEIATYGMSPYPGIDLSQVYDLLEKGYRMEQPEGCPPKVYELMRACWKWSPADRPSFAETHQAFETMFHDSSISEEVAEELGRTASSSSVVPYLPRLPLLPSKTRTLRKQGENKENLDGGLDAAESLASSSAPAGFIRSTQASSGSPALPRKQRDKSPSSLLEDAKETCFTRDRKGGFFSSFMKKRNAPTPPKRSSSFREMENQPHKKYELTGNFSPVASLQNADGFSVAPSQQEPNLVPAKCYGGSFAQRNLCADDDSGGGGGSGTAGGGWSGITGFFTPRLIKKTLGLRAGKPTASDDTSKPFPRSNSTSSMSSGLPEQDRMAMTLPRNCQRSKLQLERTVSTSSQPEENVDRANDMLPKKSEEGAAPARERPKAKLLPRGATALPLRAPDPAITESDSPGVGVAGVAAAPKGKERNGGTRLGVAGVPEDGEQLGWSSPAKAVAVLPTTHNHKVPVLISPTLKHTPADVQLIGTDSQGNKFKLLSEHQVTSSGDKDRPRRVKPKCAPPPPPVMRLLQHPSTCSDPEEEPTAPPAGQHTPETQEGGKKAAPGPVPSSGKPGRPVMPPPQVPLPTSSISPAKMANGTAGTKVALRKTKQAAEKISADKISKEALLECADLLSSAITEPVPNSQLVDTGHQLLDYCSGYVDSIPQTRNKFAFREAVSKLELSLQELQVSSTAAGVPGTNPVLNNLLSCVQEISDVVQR

ROCK-II(h) = ROCK-II(h) (Homo sapiens (Human), UniProt O75116)
Sequence of ROCK-II(h) (O75116 whole entry): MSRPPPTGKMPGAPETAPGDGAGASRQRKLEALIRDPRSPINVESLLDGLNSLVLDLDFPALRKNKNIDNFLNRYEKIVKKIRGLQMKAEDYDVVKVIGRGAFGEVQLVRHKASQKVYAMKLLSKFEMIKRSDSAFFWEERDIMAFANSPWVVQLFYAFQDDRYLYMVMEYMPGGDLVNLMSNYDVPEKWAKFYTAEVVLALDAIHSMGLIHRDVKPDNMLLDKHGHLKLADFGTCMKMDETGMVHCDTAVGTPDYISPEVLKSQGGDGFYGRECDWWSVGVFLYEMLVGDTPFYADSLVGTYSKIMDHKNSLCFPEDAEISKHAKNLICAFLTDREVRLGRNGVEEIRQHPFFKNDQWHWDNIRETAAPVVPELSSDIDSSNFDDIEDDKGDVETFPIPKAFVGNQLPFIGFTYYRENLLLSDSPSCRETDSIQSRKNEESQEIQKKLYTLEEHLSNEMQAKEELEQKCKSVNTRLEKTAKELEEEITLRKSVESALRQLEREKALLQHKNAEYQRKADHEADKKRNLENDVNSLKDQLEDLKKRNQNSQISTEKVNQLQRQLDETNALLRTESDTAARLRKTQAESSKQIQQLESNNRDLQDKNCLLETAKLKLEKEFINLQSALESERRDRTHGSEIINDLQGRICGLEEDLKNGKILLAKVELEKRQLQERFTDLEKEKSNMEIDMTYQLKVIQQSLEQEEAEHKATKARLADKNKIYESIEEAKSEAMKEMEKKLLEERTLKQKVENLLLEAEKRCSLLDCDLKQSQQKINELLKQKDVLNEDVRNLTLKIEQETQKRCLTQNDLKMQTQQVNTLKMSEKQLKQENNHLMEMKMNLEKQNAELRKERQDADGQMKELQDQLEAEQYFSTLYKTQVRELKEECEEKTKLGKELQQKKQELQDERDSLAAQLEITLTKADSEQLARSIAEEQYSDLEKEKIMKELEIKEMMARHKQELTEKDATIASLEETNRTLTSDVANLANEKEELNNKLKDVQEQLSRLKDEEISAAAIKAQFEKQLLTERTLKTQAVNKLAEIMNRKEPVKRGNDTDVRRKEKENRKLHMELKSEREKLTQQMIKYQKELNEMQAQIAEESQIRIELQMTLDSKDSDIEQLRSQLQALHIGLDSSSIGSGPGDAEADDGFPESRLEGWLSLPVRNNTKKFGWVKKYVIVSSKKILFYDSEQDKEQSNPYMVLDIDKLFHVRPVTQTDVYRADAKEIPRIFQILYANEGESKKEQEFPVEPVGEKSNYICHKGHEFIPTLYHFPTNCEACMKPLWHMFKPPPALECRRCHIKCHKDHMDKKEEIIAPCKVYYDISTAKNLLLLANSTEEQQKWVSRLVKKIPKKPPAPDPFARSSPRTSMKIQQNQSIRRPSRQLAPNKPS

MST3(h) = MST3(h) (Homo sapiens (Human), UniProt Q9Y6E0)
CHK2(h) = CHK2(h) (Homo sapiens (Human), UniProt O96017)
SAPK4(h) = SAPK4(h) (Homo sapiens (Human), UniProt O15264)
Sequence of SAPK4(h) (O15264 whole entry): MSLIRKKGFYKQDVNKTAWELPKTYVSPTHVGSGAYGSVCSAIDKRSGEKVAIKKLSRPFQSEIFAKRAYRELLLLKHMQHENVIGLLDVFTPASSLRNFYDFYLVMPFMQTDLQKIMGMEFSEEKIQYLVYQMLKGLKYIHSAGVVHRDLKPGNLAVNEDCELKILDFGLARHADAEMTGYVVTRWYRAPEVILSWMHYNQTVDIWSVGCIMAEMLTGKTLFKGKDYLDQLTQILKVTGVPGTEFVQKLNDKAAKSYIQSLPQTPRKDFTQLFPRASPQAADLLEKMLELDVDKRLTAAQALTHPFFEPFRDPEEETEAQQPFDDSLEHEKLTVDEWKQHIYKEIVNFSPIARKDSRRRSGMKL

IKKβ(h) = IKKβ(h) (Homo sapiens (Human), UniProt O14920)
Tie2(Y897S)(h) = Tie2(Y897S)(h) (Homo sapiens (Human), UniProt Q02763, Y897S)
PKCι(h) = PKCι(h) (Homo sapiens (Human), UniProt P41743)
Sequence of PKCι(h) (P41743 whole entry): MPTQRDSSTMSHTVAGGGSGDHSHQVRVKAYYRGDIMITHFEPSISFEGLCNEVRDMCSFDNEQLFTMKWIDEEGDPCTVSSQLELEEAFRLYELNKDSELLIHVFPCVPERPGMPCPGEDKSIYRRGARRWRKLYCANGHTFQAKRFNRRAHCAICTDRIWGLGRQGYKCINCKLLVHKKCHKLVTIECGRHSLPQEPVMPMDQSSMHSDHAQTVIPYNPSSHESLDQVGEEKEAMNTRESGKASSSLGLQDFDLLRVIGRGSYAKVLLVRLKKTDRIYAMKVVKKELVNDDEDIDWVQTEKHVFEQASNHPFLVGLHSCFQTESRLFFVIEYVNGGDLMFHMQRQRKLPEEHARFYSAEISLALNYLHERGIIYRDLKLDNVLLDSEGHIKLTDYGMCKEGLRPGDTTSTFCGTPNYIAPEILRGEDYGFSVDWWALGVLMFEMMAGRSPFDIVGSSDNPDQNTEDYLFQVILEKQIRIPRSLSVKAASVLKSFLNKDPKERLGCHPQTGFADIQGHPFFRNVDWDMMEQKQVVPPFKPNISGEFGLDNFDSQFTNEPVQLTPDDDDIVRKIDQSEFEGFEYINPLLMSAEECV

CK1γ3(h) = CK1γ3(h) (Homo sapiens (Human), UniProt Q9Y6M4)
Sequence of CK1γ3(h) (Q9Y6M4 whole entry): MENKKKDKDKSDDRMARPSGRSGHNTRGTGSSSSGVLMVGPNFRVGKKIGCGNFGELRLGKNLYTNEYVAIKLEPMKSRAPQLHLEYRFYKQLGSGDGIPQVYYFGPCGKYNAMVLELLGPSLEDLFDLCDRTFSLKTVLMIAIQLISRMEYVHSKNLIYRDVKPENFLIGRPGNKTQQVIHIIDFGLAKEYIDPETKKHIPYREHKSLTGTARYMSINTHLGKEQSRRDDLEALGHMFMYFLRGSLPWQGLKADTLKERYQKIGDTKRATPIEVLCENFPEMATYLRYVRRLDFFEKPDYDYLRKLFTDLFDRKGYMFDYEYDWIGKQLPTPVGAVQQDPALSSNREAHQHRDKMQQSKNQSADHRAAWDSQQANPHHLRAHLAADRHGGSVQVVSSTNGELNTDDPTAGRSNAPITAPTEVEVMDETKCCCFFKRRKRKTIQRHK

Mer(h) = Mer(h) (Homo sapiens (Human), UniProt Q12866)
CaMKI(h) = CaMKI(h) (Homo sapiens (Human), UniProt Q14012)

CCn1c(N2CCNCC2)nc2c(Br)c(Br)c(Br)c(Br)c21 [Compound 416, 4,5,6,7-tetrabromo-1-ethyl-2-(piperazin-1-yl)-1H-benzo[d]imidazole] was tested, and the remaining activity at 1 µM (GSK3β(h)) was 66%, the remaining activity at 1 µM (SAPK2b(h)) was 91% and the remaining activity at 1 µM (JAK3(h)) was 74%. For the same compound, the remaining activity at 1 µM (TSSK2(h)) was 95%, the remaining activity at 1 µM (Itk(h)) was 105% and the remaining activity at 1 µM (Lck(h)) was 43%. The remaining activity at 1 µM (Abl(h)) was 107%, the remaining activity at 1 µM (PDGFRα(D842V)(h)) was 17% and the remaining activity at 1 µM (STK33(h)) was 66%. The remaining activity at 1 µM (MEK1(h)) was 73%, the remaining activity at 1 µM (SRPK2(h)) was 102% and the remaining activity at 1 µM (ALK(h)) was 106%. For the same compound, the remaining activity at 1 µM (EGFR(L858R)(h)) was 22%, the remaining activity at 1 µM (Flt3(D835Y)(h)) was 1% and the remaining activity at 1 µM (NEK11(h)) was 73%. The remaining activity at 1 µM (PKCγ(h)) was 93%, the remaining activity at 1 µM (CDK6/cyclinD3(h)) was 91% and the remaining activity at 1 µM (Rsk2(h)) was 81%. For the same compound, the remaining activity at 1 µM (TSSK1(h)) was 96%, the remaining activity at 1 µM (RIPK2(h)) was 79% and the remaining activity at 1 µM (PDGFRα(V561D)(h)) was 68%. The remaining activity at 1 µM (MSK2(h)) was 16%, the remaining activity at 1 µM (PKBα(h)) was 59% and the remaining activity at 1 µM (LKB1(h)) was 86%. For the same compound, the remaining activity at 1 µM (Abl(m)) was 90%, the remaining activity at 1 µM (MLK1(h)) was 87% and the remaining activity at 1 µM (Rsk3(h)) was 71%. For the same compound, the remaining activity at 1 µM (Met(D1246N)(h)) was 74%, the remaining activity at 1 µM (MSK1(h)) was 54% and the remaining activity at 1 µM (Arg(m)) was 96%. The remaining activity at 1 µM (ROCK-II(h)) was 81%, the remaining activity at 1 µM (MST3(h)) was 93% and the remaining activity at 1 µM (CHK2(h)) was 76%. The remaining activity at 1 µM (SAPK4(h)) was 51%, the remaining activity at 1 µM (IKKβ(h)) was 78% and the remaining activity at 1 µM (Tie2(Y897S)(h)) was 91%. The remaining activity at 1 µM (PKCι(h)) was 104%, the remaining activity at 1 µM (CK1γ3(h)) was 89% and the remaining activity at 1 µM (Mer(h)) was 14%. For the same compound, the remaining activity at 1 µM (CaMKI(h)) was 89%.
